Laboratory results from paper PMC11855478, “Bicyclic N,S-Acetals Containing Fused Cysteine-Amide System as New Heterocyclic Class Targeting Human Farnesyltransferase (FTase-h)” (International Journal of Molecular Sciences, 2025).

What was measured:
Type in all cases: cell-based, human
[1] = test system: MOLT-4 (Leukemia); experiment: NCI one dose, MOLT-4; details: MOLT-4, 1.00E-5 Molar one dose
Procedure: (§1) 3.4. Cell Proliferation Assay
(§2) Selected compounds were tested on a panel of 60 human cancer cell lines at the National Cancer Institute (NCI), Germantown, MD, USA. The cytotoxicity studies were conducted using a 48 h exposure protocol using the sulfo-rhodamine B assay.

[2] = test system: RPMI-8226 (Leukemia); experiment: NCI one dose, RPMI-8226; details: RPMI-8226, 1.00E-5 Molar one dose
Procedure: as §1, §2

[3] = test system: HOP-62 (Non-Small Cell Lung Cancer); experiment: NCI one dose, HOP-62; details: HOP-62, 1.00E-5 Molar one dose
Procedure: as §1, §2

[4] = test system: NCI-H322M (Non-Small Cell Lung Cancer); experiment: NCI one dose, NCI-H322M; details: 1.00E-5 Molar one dose
Procedure: as §1, §2

[5] = test system: NCI-H460 (Non-Small Cell Lung Cancer); experiment: NCI one dose, NCI-H460; details: NCI-H460, 1.00E-5 Molar one dose
Procedure: as §1, §2

[6] = test system: NCI-H522 non-small cell lung cancer cells; experiment: NCI cell proliferation, NCI-H522; details: for inhibition at 10 µM: read-out: % Cancer cell growth Inhibition (NCI-H522); for Growth Percent: NCI-H522, 1.00E-5 Molar one dose
Procedure: as §1, §2

[7] = test system: COLO 205 (Colon Cancer); experiment: NCI one dose, COLO 205; details: COLO 205, 1.00E-5 Molar one dose
Procedure: as §1, §2

[8] = test system: HCC-2998 (Colon Cancer); experiment: NCI one dose, HCC-2998; details: HCC-2998, 1.00E-5 Molar one dose
Procedure: as §1, §2

[9] = test system: HCT-15 (Colon Cancer); experiment: NCI one dose, HCT-15; details: HCT-15, 1.00E-5 Molar one dose
Procedure: as §1, §2

[10] = test system: HT29 (Colon Cancer); experiment: NCI one dose, HT29; details: HT29, 1.00E-5 Molar one dose
Procedure: as §1, §2

[11] = test system: KM12 (Colon Cancer); experiment: NCI one dose, KM12; details: KM12, 1.00E-5 Molar one dose
Procedure: as §1, §2

[12] = test system: SW-620 (Colon Cancer); experiment: NCI one dose, SW-620; details: SW-620, 1.00E-5 Molar one dose
Procedure: as §1, §2

[13] = test system: SF-268 (CNS Cancer); experiment: NCI one dose, SF-268; details: SF-268, 1.00E-5 Molar one dose
Procedure: as §1, §2

[14] = test system: SF-295 (CNS Cancer); experiment: NCI one dose, SF-295; details: SF-295, 1.00E-5 Molar one dose
Procedure: as §1, §2

[15] = test system: SNB-19 (CNS Cancer); experiment: NCI one dose, SNB-19; details: SNB-19, 1.00E-5 Molar one dose
Procedure: as §1, §2

[16] = test system: U251 (CNS Cancer); experiment: NCI one dose, U251; details: U251, 1.00E-5 Molar one dose
Procedure: as §1, §2

[17] = test system: MALME-3M (Melanoma); experiment: NCI one dose, MALME-3M; details: 1.00E-5 Molar one dose
Procedure: as §1, §2

[18] = test system: M14 (Melanoma); experiment: NCI one dose, M14; details: M14, 1.00E-5 Molar one dose
Procedure: as §1, §2

[19] = test system: SK-MEL-2 (Melanoma); experiment: NCI one dose, SK-MEL-2; details: SK-MEL-2, 1.00E-5 Molar one dose
Procedure: as §1, §2

[20] = test system: SK-MEL-28 (Melanoma); experiment: NCI one dose, SK-MEL-28; details: SK-MEL-28, 1.00E-5 Molar one dose
Procedure: as §1, §2

[21] = test system: UACC-257 melanoma cells; experiment: NCI one dose, UACC-257; details: UACC-257, 1.00E-5 Molar one dose
Procedure: as §1, §2

[22] = test system: UACC-62 (Melanoma); experiment: NCI one dose, UACC-62; details: UACC-62, 1.00E-5 Molar one dose
Procedure: as §1, §2

[23] = test system: IGROV1 (Ovarian Cancer); experiment: NCI one dose, IGROV1; details: IGROV1, 1.00E-5 Molar one dose
Procedure: as §1, §2

[24] = test system: OVCAR-5 (Ovarian Cancer); experiment: NCI one dose, OVCAR-5; details: OVCAR-5, 1.00E-5 Molar one dose
Procedure: as §1, §2

[25] = test system: SK-OV-3 (Ovarian Cancer); experiment: NCI one dose, SK-OV-3; details: SK-OV-3, 1.00E-5 Molar one dose
Procedure: as §1, §2

[26] = test system: 786-0 (Renal Cancer); experiment: NCI one dose, 786-0; details: 786-0, 1.00E-5 Molar one dose
Procedure: as §1, §2

[27] = test system: A498 (Renal Cancer); experiment: NCI one dose, A498; details: A498, 1.00E-5 Molar one dose
Procedure: as §1, §2

[28] = test system: ACHN (Renal Cancer); experiment: NCI one dose, ACHN; details: 1.00E-5 Molar one dose
Procedure: as §1, §2

[29] = test system: CAKI-1 (Renal Cancer); experiment: NCI one dose, CAKI-1; details: CAKI-1, 1.00E-5 Molar one dose
Procedure: as §1, §2

[30] = test system: TK-10 (Renal Cancer); experiment: NCI one dose, TK-10; details: TK-10, 1.00E-5 Molar one dose
Procedure: as §1, §2

[31] = test system: PC-3 (Prostate Cancer); experiment: NCI one dose, PC-3; details: PC-3, 1.00E-5 Molar one dose
Procedure: as §1, §2

[32] = test system: DU-145 (Prostate Cancer); experiment: NCI one dose, DU-145; details: DU-145, 1.00E-5 Molar one dose
Procedure: as §1, §2

[33] = test system: MDA-MB-231/ATCC (Breast Cancer); experiment: NCI one dose, MDA-MB-231/ATCC; details: 1.00E-5 Molar one dose
Procedure: as §1, §2

[34] = test system: HS 578T (Breast Cancer); experiment: NCI one dose, HS 578T; details: 1.00E-5 Molar one dose
Procedure: as §1, §2

[35] = test system: BT-549 (Breast Cancer); experiment: NCI one dose, BT-549; details: BT-549, 1.00E-5 Molar one dose
Procedure: as §1, §2

[36] = test system: T-47D (Breast Cancer); experiment: NCI one dose, T-47D; details: 1.00E-5 Molar one dose
Procedure: as §1, §2

[37] = test system: MDA-MB-468 breast cancer cells; experiment: NCI one dose, MDA-MB-468; details: MDA-MB-468, 1.00E-5 Molar one dose
Procedure: as §1, §2

COc1cccc(CNC(=O)[C@@H]2CS[C@H]3c4ccccc4C(=O)N23)c1 [4aE]
Growth Percent [1]: 80.83% | Growth Percent [2]: 101.67% | Growth Percent [3]: 96.82% | Growth Percent [4]: 105.81% | Growth Percent [5]: 113.41% | inhibition at 10 µM ([6]; Homo sapiens, NCI-H522): 26% | Growth Percent [6]: 74.09% | Growth Percent [7]: 112.81% | Growth Percent [8]: 98.50% | Growth Percent [9]: 105.05% | Growth Percent [10]: 89.79% | Growth Percent [11]: 100.40% | Growth Percent [12]: 108.22% | Growth Percent [13]: 100.53% | Growth Percent [14]: 99.74% | Growth Percent [15]: 104.75% | Growth Percent [16]: 102.42% | Growth Percent [17]: 107.90% | Growth Percent [18]: 107.40% | Growth Percent [19]: 95.73% | Growth Percent [20]: 113.63% | Growth Percent [21]: 93.82% | Growth Percent [22]: 102.11% | Growth Percent [23]: 109.07% | Growth Percent [24]: 113.91% | Growth Percent [25]: 110.57% | Growth Percent [26]: 102.72% | Growth Percent [27]: 92.71% | Growth Percent [28]: 110.85% | Growth Percent [29]: 96.42% | Growth Percent [30]: 89.04% | Growth Percent [31]: 98.06% | Growth Percent [32]: 104.21% | Growth Percent [33]: 107.16% | Growth Percent [34]: 98.68% | Growth Percent [35]: 110.89% | Growth Percent [36]: 103.32% | Growth Percent [37]: 106.71%

COc1ccccc1CNC(=O)[C@@H]1CS[C@H]2c3ccccc3C(=O)N12 [4aG]
Growth Percent [1]: 97.42% | Growth Percent [2]: 102.98% | Growth Percent [3]: 104.24% | Growth Percent [4]: 100.55% | Growth Percent [5]: 110.17% | inhibition at 10 µM ([6]; Homo sapiens, NCI-H522): 30% | Growth Percent [6]: 69.93% | Growth Percent [7]: 111.29% | Growth Percent [8]: 120.86% | Growth Percent [9]: 107.09% | Growth Percent [10]: 77.01% | Growth Percent [11]: 105.74% | Growth Percent [12]: 105.78% | Growth Percent [13]: 102.73% | Growth Percent [14]: 100.33% | Growth Percent [15]: 107.13% | Growth Percent [16]: 99.09% | Growth Percent [17]: 108.91% | Growth Percent [18]: 104.36% | Growth Percent [19]: 96.50% | Growth Percent [20]: 116.98% | Growth Percent [21]: 74.73% | Growth Percent [22]: 103.22% | Growth Percent [23]: 109.59% | Growth Percent [24]: 112.94% | Growth Percent [25]: 107.78% | Growth Percent [26]: 107.93% | Growth Percent [27]: 84.76% | Growth Percent [28]: 109.98% | Growth Percent [29]: 94.09% | Growth Percent [30]: 90.98% | Growth Percent [31]: 102.91% | Growth Percent [32]: 106.12% | Growth Percent [33]: 109.17% | Growth Percent [34]: 96.02% | Growth Percent [35]: 110.45% | Growth Percent [36]: 98.98% | Growth Percent [37]: 101.62%

COc1ccc(CNC(=O)[C@@H]2CS[C@H]3c4ccccc4C(=O)N23)cc1OC [4aI]
Growth Percent [1]: 99.18% | Growth Percent [2]: 99.43% | Growth Percent [3]: 98.51% | Growth Percent [4]: 101.37% | Growth Percent [5]: 111.19% | GI50 ([6]; Homo sapiens, NCI-H522): 20.8 µM | inhibition at 10 µM ([6]; Homo sapiens, NCI-H522): 36% | Growth Percent [6]: 63.65% | Growth Percent [7]: 111.84% | Growth Percent [8]: 105.82% | Growth Percent [9]: 109.55% | Growth Percent [10]: 80.71% | Growth Percent [11]: 107.09% | Growth Percent [12]: 102.54% | Growth Percent [13]: 104.77% | Growth Percent [14]: 101.16% | Growth Percent [15]: 104.62% | Growth Percent [16]: 93.84% | Growth Percent [17]: 102.18% | Growth Percent [18]: 107.33% | Growth Percent [19]: 80.08% | Growth Percent [20]: 110.57% | Growth Percent [21]: 75.20% | Growth Percent [22]: 98.01% | Growth Percent [23]: 109.87% | Growth Percent [24]: 102.57% | Growth Percent [25]: 104.05% | Growth Percent [26]: 106.53% | Growth Percent [27]: 89.23% | Growth Percent [28]: 105.56% | Growth Percent [29]: 95.39% | Growth Percent [30]: 87.34% | Growth Percent [31]: 88.12% | Growth Percent [32]: 107.46% | Growth Percent [33]: 102.55% | Growth Percent [34]: 98.06% | Growth Percent [35]: 108.27% | Growth Percent [36]: 85.94% | Growth Percent [37]: 102.27%

COc1cc(CNC(=O)[C@@H]2CS[C@H]3c4ccccc4C(=O)N23)cc(OC)c1OC [4aJ]
Growth Percent [1]: 90.32% | Growth Percent [2]: 95.00% | Growth Percent [3]: 94.96% | Growth Percent [4]: 107.00% | inhibition at 10 µM ([6]; Homo sapiens, NCI-H522): 17% | Growth Percent [6]: 83.00% | Growth Percent [8]: 113.62% | Growth Percent [9]: 107.89% | Growth Percent [10]: 103.83% | Growth Percent [11]: 103.41% | Growth Percent [12]: 104.14% | Growth Percent [13]: 104.63% | Growth Percent [14]: 107.19% | Growth Percent [15]: 92.64% | Growth Percent [16]: 104.21% | Growth Percent [17]: 105.79% | Growth Percent [18]: 94.92% | Growth Percent [19]: 95.25% | Growth Percent [20]: 109.82% | Growth Percent [21]: 98.86% | Growth Percent [22]: 92.01% | Growth Percent [23]: 102.86% | Growth Percent [24]: 94.62% | Growth Percent [25]: 93.11% | Growth Percent [26]: 90.66% | Growth Percent [27]: 100.74% | Growth Percent [28]: 100.59% | Growth Percent [29]: 95.05% | Growth Percent [30]: 103.10% | Growth Percent [31]: 87.87% | Growth Percent [32]: 113.37% | Growth Percent [33]: 84.71% | Growth Percent [34]: 101.31% | Growth Percent [35]: 92.77% | Growth Percent [37]: 91.25%
